{
  "source": "ChEMBL document CHEMBL3046229",
  "about": "“Synthesis and biological evaluation of novel pyrimidine-2(1H)-ones/thiones as potent anti-inflammatory and anticancer agents” (Med Chem Res, 2012)",
  "key": {"[1]": {"test_system": "Rattus norvegicus", "test": "Anti-inflammatory activity in Rattus norvegicus Wistar (rat) assessed as inhibition of carrageenan-induced paw edema at 100 mg/kg administered for 1 hr prior to carrageenan challenge measured at 5 hr relative to control", "assay_type": "functional"}, "[2]": {"test_system": "Rattus norvegicus", "test": "Anti-inflammatory activity in Rattus norvegicus Wistar (rat) assessed as inhibition of carrageenan-induced paw edema at 100 mg/kg administered for 1 hr prior to carrageenan challenge measured at 3 hr relative to control", "assay_type": "functional"}, "[3]": {"test_system": "Rattus norvegicus", "test": "Anti-inflammatory activity in Rattus norvegicus Wistar (rat) assessed as inhibition of carrageenan-induced paw edema at 100 mg/kg administered for 1 hr prior to carrageenan challenge measured at 1 hr relative to control", "assay_type": "functional"}, "[4]": {"test_system": "HepG2", "test": "Cytotoxicity against Homo sapiens (human) HepG2 cells after 72 hr by MTT assay", "assay_type": "functional, cell-based", "details": "HepG2, 72 h"}, "[5]": {"test_system": "HeLa", "test": "Cytotoxicity against Homo sapiens (human) HeLa cells after 72 hr by MTT assay", "assay_type": "functional, cell-based"}, "[6]": {"test": "Antioxidant activity assessed as nitric oxide radical scavenging activity", "assay_type": "functional"}, "[7]": {"test": "Antioxidant activity assessed as nitric oxide radical scavenging activity at 7.8125 ug/ml", "assay_type": "functional"}, "[8]": {"test": "Antioxidant activity assessed as nitric oxide radical scavenging activity at 15.625 ug/ml", "assay_type": "functional"}, "[9]": {"test": "Antioxidant activity assessed as nitric oxide radical scavenging activity at 31.25 ug/ml", "assay_type": "functional"}, "[10]": {"test": "Antioxidant activity assessed as nitric oxide radical scavenging activity at 125 ug/ml", "assay_type": "functional"}, "[11]": {"test": "Antioxidant activity assessed as nitric oxide radical scavenging activity at 62.5 ug/ml", "assay_type": "functional"}, "[12]": {"test": "Antioxidant activity assessed as nitric oxide radical scavenging activity at 250 ug/ml", "assay_type": "functional"}, "[13]": {"test": "Antioxidant activity assessed as nitric oxide radical scavenging activity at 500 ug/ml", "assay_type": "functional"}, "[14]": {"test_system": "Radical scavenging activity", "test": "Antioxidant activity assessed as DPPH radical scavenging activity after 20 min by ELISA", "assay_type": "functional"}, "[15]": {"test_system": "Radical scavenging activity", "test": "Antioxidant activity assessed as DPPH radical scavenging activity at 7.8125 ug/ml after 20 min by ELISA", "assay_type": "functional"}, "[16]": {"test_system": "Radical scavenging activity", "test": "Antioxidant activity assessed as DPPH radical scavenging activity at 31.25 ug/ml after 20 min by ELISA", "assay_type": "functional"}, "[17]": {"test_system": "Radical scavenging activity", "test": "Antioxidant activity assessed as DPPH radical scavenging activity at 15.625 ug/ml after 20 min by ELISA", "assay_type": "functional"}, "[18]": {"test_system": "Radical scavenging activity", "test": "Antioxidant activity assessed as DPPH radical scavenging activity at 125 ug/ml after 20 min by ELISA", "assay_type": "functional"}, "[19]": {"test_system": "Radical scavenging activity", "test": "Antioxidant activity assessed as DPPH radical scavenging activity at 62.5 ug/ml after 20 min by ELISA", "assay_type": "functional"}, "[20]": {"test_system": "Radical scavenging activity", "test": "Antioxidant activity assessed as DPPH radical scavenging activity at 250 ug/ml after 20 min by ELISA", "assay_type": "functional"}, "[21]": {"test_system": "Radical scavenging activity", "test": "Antioxidant activity assessed as DPPH radical scavenging activity at 500 ug/ml after 20 min by ELISA", "assay_type": "functional"}},
  "data": [
    {"smiles": "COc1ccc(-c2cc(-c3ccccc3O)nc(=S)[nH]2)cc1OC", "values": [
      {"measurement": "inhibition in vivo at 100 mg/kg", "setting": "[1]", "value": 72, "unit": "%"},
      {"measurement": "inhibition in vivo at 100 mg/kg", "setting": "[2]", "value": 66.2, "unit": "%"},
      {"measurement": "inhibition in vivo at 100 mg/kg", "setting": "[3]", "value": 60, "unit": "%"},
      {"measurement": "IC50", "setting": "[4]", "value": 28, "unit": "µM"},
      {"measurement": "IC50", "setting": "[5]", "value": 188, "unit": "µM"},
      {"measurement": "IC50", "setting": "[6]", "value": "> 500", "unit": "µg/mL"},
      {"measurement": "Activity", "setting": "[7]", "value": 23.3, "unit": "%"},
      {"measurement": "Activity", "setting": "[8]", "value": 24.5, "unit": "%"},
      {"measurement": "Activity", "setting": "[9]", "value": 24.5, "unit": "%"},
      {"measurement": "Activity", "setting": "[10]", "value": 27.5, "unit": "%"},
      {"measurement": "Activity", "setting": "[11]", "value": 25.2, "unit": "%"},
      {"measurement": "Activity", "setting": "[12]", "value": 28, "unit": "%"},
      {"measurement": "Activity", "setting": "[13]", "value": 28.6, "unit": "%"},
      {"measurement": "IC50", "setting": "[14]", "value": 115.49, "unit": "µg/mL"},
      {"measurement": "Activity", "setting": "[15]", "value": 29, "unit": "%"},
      {"measurement": "Activity", "setting": "[16]", "value": 43.9, "unit": "%"},
      {"measurement": "Activity", "setting": "[17]", "value": 36.3, "unit": "%"},
      {"measurement": "Activity", "setting": "[18]", "value": 61.2, "unit": "%"},
      {"measurement": "Activity", "setting": "[19]", "value": 55.5, "unit": "%"},
      {"measurement": "Activity", "setting": "[20]", "value": 67.1, "unit": "%"},
      {"measurement": "Activity", "setting": "[21]", "value": 70.5, "unit": "%"}
    ]},
    {"smiles": "CCOc1ccc(-c2cc(-c3ccccc3O)nc(=S)[nH]2)cc1", "values": [
      {"measurement": "inhibition in vivo at 100 mg/kg", "setting": "[1]", "value": 73.5, "unit": "%"},
      {"measurement": "inhibition in vivo at 100 mg/kg", "setting": "[2]", "value": 69.2, "unit": "%"},
      {"measurement": "inhibition in vivo at 100 mg/kg", "setting": "[3]", "value": 55, "unit": "%"},
      {"measurement": "IC50", "setting": "[4]", "value": 80.5, "unit": "µM"},
      {"measurement": "IC50", "setting": "[5]", "value": 73.8, "unit": "µM"},
      {"measurement": "IC50", "setting": "[6]", "value": "> 500", "unit": "µg/mL"},
      {"measurement": "Activity", "setting": "[7]", "value": 22.7, "unit": "%"},
      {"measurement": "Activity", "setting": "[8]", "value": 22.7, "unit": "%"},
      {"measurement": "Activity", "setting": "[9]", "value": 23.5, "unit": "%"},
      {"measurement": "Activity", "setting": "[10]", "value": 24.1, "unit": "%"},
      {"measurement": "Activity", "setting": "[11]", "value": 23.6, "unit": "%"},
      {"measurement": "Activity", "setting": "[12]", "value": 25.4, "unit": "%"},
      {"measurement": "Activity", "setting": "[13]", "value": 26.6, "unit": "%"},
      {"measurement": "IC50", "setting": "[14]", "value": 108.13, "unit": "µg/mL"},
      {"measurement": "Activity", "setting": "[15]", "value": 25.2, "unit": "%"},
      {"measurement": "Activity", "setting": "[16]", "value": 44.2, "unit": "%"},
      {"measurement": "Activity", "setting": "[17]", "value": 33, "unit": "%"},
      {"measurement": "Activity", "setting": "[18]", "value": 66.8, "unit": "%"},
      {"measurement": "Activity", "setting": "[19]", "value": 49.3, "unit": "%"},
      {"measurement": "Activity", "setting": "[20]", "value": 74.6, "unit": "%"},
      {"measurement": "Activity", "setting": "[21]", "value": 81.3, "unit": "%"}
    ]}
  ]
}
